target: recombinant PI3K δ enzyme (Homo sapiens (Human), UniProt O00329); test: In vitro enzyme assay (Kinase-Glo luminescent kinase assay), PI3Kδ; format: biochemical
Method: The Kinase-Glo luminescent kinase assay kit (from Promega) was used to measure kinase activity. In this assay, amount of ATP remaining in solution following a kinase reaction is measured. The effect of compounds on PI3Kδ inhibition was carried out by adding 2.29 μg/ml of recombinant PI3K δ enzyme (Proteros, Germany) to reaction mixture containing assay buffer (50 mM HEPES, pH 7.4, 50 mM NaCl, 0.05% CHAPS) supplemented with 10 mM MgCl2, 5 mM DTT, 60 μM Phosphatidyl inositol bisphosphate (PIP2) and 10 μM ATP in the absence or presence of different concentrations of the compounds in a final volume of 15 μl/well, in a 384 well plate. The reaction mixture was incubated for 2 hours at room temperature. At the end of incubation period the equal volume of Kinase-Glo plus (Promega, V3772), was added per well and the luminescence was measured after incubating for 10 minutes at room temperature in dark. Results were calculated by measuring the luminescence units of test samples to blanks containing no enzyme.
The compounds of the present invention were tested for their selectivity for PI3Kδ over PI3Kα, PI3Kβ and PI3Kγ following the above assay using specific recombinant enzymes (Proteros, Germany) for each kinase. Assay condition of kinase assay (PI3Kα, PI3Kβ, PI3Kγ and PI3Kδ) was as follows. Enzyme: 2.29 μg/mL; ATP: 10 μM; PIP2 substrate: 60 μM and Reaction Time: 2 hours.

recombinant PI3K δ enzyme, sequence (O00329 whole entry, species assumed): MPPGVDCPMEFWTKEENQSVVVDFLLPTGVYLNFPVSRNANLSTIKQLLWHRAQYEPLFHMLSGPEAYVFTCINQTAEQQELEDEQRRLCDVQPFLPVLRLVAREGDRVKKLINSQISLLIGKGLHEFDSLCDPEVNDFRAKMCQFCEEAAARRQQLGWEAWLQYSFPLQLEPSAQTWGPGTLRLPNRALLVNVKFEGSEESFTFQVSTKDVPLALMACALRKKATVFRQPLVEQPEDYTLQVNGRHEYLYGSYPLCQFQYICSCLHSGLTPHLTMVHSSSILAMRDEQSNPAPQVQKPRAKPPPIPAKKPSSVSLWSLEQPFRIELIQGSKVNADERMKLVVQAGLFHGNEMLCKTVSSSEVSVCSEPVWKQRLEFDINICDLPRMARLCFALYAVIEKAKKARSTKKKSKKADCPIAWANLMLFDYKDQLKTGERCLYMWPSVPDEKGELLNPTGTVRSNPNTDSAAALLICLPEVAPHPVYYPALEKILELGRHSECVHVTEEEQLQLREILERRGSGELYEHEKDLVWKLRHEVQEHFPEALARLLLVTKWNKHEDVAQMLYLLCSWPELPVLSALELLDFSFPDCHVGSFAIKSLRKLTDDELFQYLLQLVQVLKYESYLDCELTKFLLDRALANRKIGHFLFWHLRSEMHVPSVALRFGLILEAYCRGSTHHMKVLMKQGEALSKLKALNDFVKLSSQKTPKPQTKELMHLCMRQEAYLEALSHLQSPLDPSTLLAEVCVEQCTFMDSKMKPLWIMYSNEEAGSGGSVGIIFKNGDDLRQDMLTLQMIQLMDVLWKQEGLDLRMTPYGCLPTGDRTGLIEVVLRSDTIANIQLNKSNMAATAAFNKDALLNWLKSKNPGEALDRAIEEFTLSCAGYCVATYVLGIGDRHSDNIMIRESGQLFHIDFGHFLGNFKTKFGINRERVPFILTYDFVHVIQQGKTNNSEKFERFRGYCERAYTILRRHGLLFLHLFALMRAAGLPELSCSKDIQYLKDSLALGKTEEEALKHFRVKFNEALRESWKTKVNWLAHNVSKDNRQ
recombinant PI3K δ enzyme, sequence (P27986 whole entry partner, species assumed): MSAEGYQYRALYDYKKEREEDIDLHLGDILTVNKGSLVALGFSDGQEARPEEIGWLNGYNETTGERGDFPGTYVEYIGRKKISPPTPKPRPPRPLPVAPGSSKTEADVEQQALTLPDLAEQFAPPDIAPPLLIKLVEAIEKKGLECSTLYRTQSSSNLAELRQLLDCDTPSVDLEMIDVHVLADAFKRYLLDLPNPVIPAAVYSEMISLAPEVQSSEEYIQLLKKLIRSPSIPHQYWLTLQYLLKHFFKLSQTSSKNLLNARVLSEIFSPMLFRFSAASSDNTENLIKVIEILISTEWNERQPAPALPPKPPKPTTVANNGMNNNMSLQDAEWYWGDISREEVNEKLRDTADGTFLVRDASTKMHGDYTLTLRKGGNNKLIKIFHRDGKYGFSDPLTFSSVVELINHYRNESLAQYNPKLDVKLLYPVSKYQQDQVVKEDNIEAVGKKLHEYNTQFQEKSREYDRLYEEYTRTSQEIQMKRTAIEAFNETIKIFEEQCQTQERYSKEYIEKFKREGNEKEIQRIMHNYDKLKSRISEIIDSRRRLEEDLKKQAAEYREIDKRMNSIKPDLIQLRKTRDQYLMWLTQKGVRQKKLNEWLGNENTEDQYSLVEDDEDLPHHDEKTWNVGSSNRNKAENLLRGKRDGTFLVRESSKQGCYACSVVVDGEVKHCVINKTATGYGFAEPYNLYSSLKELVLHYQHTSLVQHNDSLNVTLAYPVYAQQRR

SMILES	IC50
C[C@@H]1CN(C2CN(C(=O)c3nc4c(N5CCOCC5)cc(-c5cnn(C)c5)nc4[nH]3)C2)C[C@H](C)O1 [Compound No. 119, {3-[(2R,6S)-2,6-dimethylmorpholin-4-yl]azetidin-1-yl}[5-(1-methyl-1H-pyrazol-4-yl)-7-(morpholin-4-yl)-3H-imidazo[4,5-b]pyridin-2-yl]methanone]	5 nM
Cn1cc(-c2cc(N3CCOCC3)c3nc(C(=O)N4CC(N5CCNC(=O)C5)C4)[nH]c3n2)cn1 [Compound No. 128, 4-(1-{[5-(1-Methyl-1H-pyrazol-4-yl)-7-(morpholin-4-yl)-3H-imidazo[4,5-b]pyridin-2-yl]carbonyl}azetidin-3-yl)piperazin-2-one]	19 nM
CN1CCN(C2CN(C(=O)c3nc4c(N5CCOCC5)cc(-c5cnn(C)c5)nc4[nH]3)C2)CC1=O [Compound No. 129, 1-Methyl-4-(1-{[5-(1-methyl-1H-pyrazol-4-yl)-7-(morpholin-4-yl)-3H-imidazo[4,5-b]pyridin-2-yl]carbonyl}azetidin-3-yl)piperazin-2-one]	10 nM
CN(C(=O)c1nc2c(N3CCOCC3)cc(-c3cnn(C)c3)nc2[nH]1)C1CCN(C2COC2)CC1 [Compound No. 131, N-Methyl-5-(1-methyl-1H-pyrazol-4-yl)-7-(morpholin-4-yl)-N-[1-(oxetan-3-yl)piperidin-4-yl]-3H-imidazo[4,5-b]pyridine-2-carboxamide]	146 nM
Cn1cc(-c2nc(N3CCOCC3)c3nc(C(=O)NCCc4cccnc4)[nH]c3n2)cn1 [compound 1, 2-(1-Methyl-1H-pyrazol-4-yl)-6-(morpholin-4-yl)-N-[2-(pyridin-3-yl)ethyl]-9H-purine-8-carboxamide]	61 nM
Cn1cc(-c2nc(N3CCOCC3)c3nc(C(=O)NCCN4CCOCC4)[nH]c3n2)cn1 [compound 2, 2-(1-Methyl-1H-pyrazol-4-yl)-6-(morpholin-4-yl)-N-[2-(morpholin-4-yl)ethyl]-9H-purine-8-carboxamide]	48 nM
Cn1cc(-c2nc(N3CCOCC3)c3nc(C(=O)N4CC(O)C4)[nH]c3n2)cn1 [compound 4, (3-Hydroxyazetidin-1-yl)[2-(1-methyl-1H-pyrazol-4-yl)-6-(morpholin-4-yl)-9H-purin-8-yl]methanone]	27 nM

Results, then the molecule that gave them:

IC50	SMILES
26 nM	Cc1nn(C)c(C)c1-c1nc2[nH]c(C(=O)N3CCC(N4CCOCC4)CC3)nc2c(N2CCOCC2)c1F [Compound No. 93]
52 nM	CN(C(=O)c1nc2c(N3CCOCC3)cc(-c3cnn(C)c3)nc2[nH]1)C1CCN(C2CCOCC2)CC1 [Compound No. 121, N-Methyl-5-(1-methyl-1H-pyrazol-4-yl)-7-(morpholin-4-yl)-N-[1-(tetrahydro-2H-pyran-4-yl)piperidin-4-yl]-3H-imidazo[4,5-b]pyridine-2-carboxamide]
10 nM	CN1CCN(C2CN(C(=O)c3nc4c(N5CCOCC5)nc(-c5cnn(C)c5)nc4[nH]3)C2)CC1=O [Compound No. 130, 1-Methyl-4-(1-{[2-(1-methyl-1H-pyrazol-4-yl)-6-(morpholin-4-yl)-9H-purin-8-yl]carbonyl}azetidin-3-yl)piperazin-2-one]
36 nM	Cn1cc(-c2nc(N3CCOCC3)c3nc(C(=O)N4CCN5C(=O)COC[C@H]5C4)[nH]c3n2)cn1 [compound 6, (9aR)-8-{[2-(1-Methyl-1H-pyrazol-4-yl)-6-(morpholin-4-yl)-9H-purin-8-yl]carbonyl}hexahydropyrazino[2,1-c][1,4]oxazin-4(3H)-one]
42 nM	Cn1cc(-c2nc(N3CCOCC3)c3nc(C(=O)N4CCC(N5CCOCC5=O)CC4)[nH]c3n2)cn1 [compound 7, 4-(1-{[2-(1-Methyl-1H-pyrazol-4-yl)-6-(morpholin-4-yl)-9H-purin-8-yl]carbonyl}piperidin-4-yl)morpholin-3-one]
9 nM	Cc1nn(C)cc1-c1nc(N2CCOCC2)c2nc(C(=O)N3CCN(C4CCOCC4)CC3)[nH]c2n1 [compound 9, [2-(1,3-Dimethyl-1H-pyrazol-4-yl)-6-(morpholin-4-yl)-9H-purin-8-yl][4-(tetrahydro-2H-pyran-4-yl)piperazin-1-yl]methanone]

From US10174035B2, “6-morpholinyl-2-pyrazolyl-9H-purine derivatives and their use as PI3K inhibitors” (Daiichi Sankyo Company, Limited, priority 2015, dated 2019)
